According to ChEMBL document CHEMBL1201862, “PubChem BioAssay data set” (2004):
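Grown in 96-well plates, cells were treated for 48 hours with each compound at five concentrations. Insufficient inhibition: endpoint recorded as highest concentration tested. GI50 is the concentration that inhibits growth by half.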 The source made the active and inactive calls. No stated cut-off is given here; in the data, active = GI50 up to about 1.1 µM and inactive = higher.

Tests used:
Test in all cases: NCI tumour cell line growth inhibition, 48 h
OVCAR-3 = tested on: OVCAR-3
M14 = tested on: M14
NCI-H226 = tested on: NCI-H226
OVCAR-8 = tested on: OVCAR-8
SK-OV-3 = tested on: SK-OV-3
UACC-257 = tested on: UACC-257
KM12 = tested on: KM12
CCRF-CEM = tested on: CCRF-CEM
SF-295 = tested on: SF-295
HCT-15 = tested on: HCT-15
U-251 = tested on: U-251
HCC 2998 = tested on: HCC 2998
NCI-H23 = tested on: NCI-H23
K562 = tested on: K562
SN12C = tested on: SN12C
SF-268 = tested on: SF-268
HOP-92 = tested on: HOP-92
LOX IMVI = tested on: LOX IMVI

Structure (SMILES)	GI50 (OVCAR-3)	GI50 (M14)	GI50 (NCI-H226)	GI50 (OVCAR-8)	GI50 (SK-OV-3)	GI50 (UACC-257)	GI50 (KM12)	GI50 (CCRF-CEM)	GI50 (SF-295)	GI50 (HCT-15) [µM]	GI50 (U-251)	GI50 (HCC 2998)	GI50 (NCI-H23)	GI50 (K562)	GI50 (SN12C)	GI50 (SF-268)	GI50 (HOP-92)	GI50 (LOX IMVI)
CCOC(=O)c1cccc(=O)c(C(=O)OCC)c1	31.3 µM (inactive)	81.3 µM (inactive)	19.1 µM (inactive)	43.4 µM (inactive)	> 100 µM (inactive)	57.8 µM (inactive)	3.27 µM (inactive)	27.2 µM (inactive)	2.38 µM (inactive)	40.3	32.4 µM (inactive)	> 100 µM (inactive)	44 µM (inactive)	36.1 µM (inactive)				
COc1ccc(-c2oc(/C=N/NC(N)=S)c([N+](=O)[O-])c2-c2ccc(OC)c(OC)c2)cc1OC	16.7 µM (inactive)	20.7 µM (inactive)	28.1 µM (inactive)	23.9 µM (inactive)	21 µM (inactive)	31.8 µM (inactive)		> 10 µM (inactive)	20.7 µM (inactive)	29.4			32 µM (inactive)	> 10 µM (inactive)	36 µM (inactive)	16.6 µM (inactive)	24.2 µM (inactive)	15.9 µM (inactive)
C=C1C(=O)OC2CCCCC3OC3C12 (configuration not stated)	13.4 µM (inactive)	7.16 µM (inactive)		15.9 µM (inactive)	16.5 µM (inactive)	13.4 µM (inactive)	16.6 µM (inactive)	3.04 µM (inactive)	23.2 µM (inactive)	6.9	10.7 µM (inactive)	11.7 µM (inactive)	14.4 µM (inactive)	12.3 µM (inactive)	7.62 µM (inactive)	13.8 µM (inactive)		15.8 µM (inactive)
COc1ccc(C(c2c(O)c3ccccc3n(C)c2=O)c2c(O)c3ccccc3n(C)c2=O)cc1	33 µM (inactive)	34.9 µM (inactive)	24.5 µM (inactive)	81.1 µM (inactive)	58.3 µM (inactive)	19.5 µM (inactive)	22.4 µM (inactive)		36.5 µM (inactive)	> 10	19.1 µM (inactive)	40.2 µM (inactive)	24.5 µM (inactive)	27.9 µM (inactive)	66.5 µM (inactive)	34.1 µM (inactive)	22.6 µM (inactive)	37.2 µM (inactive)
CC(C)(C)c1cc(C#N)c2c(c1)C(=O)OC2(c1ccccc1)c1ccccc1C#N (configuration not stated)	94.6 µM (inactive)	> 100 µM (inactive)	> 100 µM (inactive)	> 100 µM (inactive)	> 100 µM (inactive)	87.7 µM (inactive)	43 µM (inactive)	> 100 µM (inactive)	78.3 µM (inactive)	29.5	> 100 µM (inactive)		> 100 µM (inactive)	45.4 µM (inactive)	> 100 µM (inactive)	> 100 µM (inactive)		> 100 µM (inactive)
CCOC(=O)c1ccc(N[C@@H]2c3cc4c(cc3C(C3=CC(=O)C(=O)C(OC)=C3)[C@H]3C(=O)OCC32)OCO4)cc1 (some centres not stated)	8.47 µM (inactive)	2.51 µM (inactive)		2.86 µM (inactive)	2.26 µM (inactive)	9.08 µM (inactive)	3.92 µM (inactive)	0.845 µM (active)	1.35 µM (inactive)	2.21	0.995 µM (active)	4.6 µM (inactive)	1.54 µM (inactive)	2.67 µM (inactive)	2 µM (inactive)	1.77 µM (inactive)	2.04 µM (inactive)	2.08 µM (inactive)
O=C(CSC(=S)N1CCCCC1)Nc1nc2c(s1)CCCC2		66.5 µM (inactive)	43.4 µM (inactive)	58.1 µM (inactive)	> 100 µM (inactive)	23.3 µM (inactive)	57.4 µM (inactive)	29.4 µM (inactive)	16.4 µM (inactive)	8.73	29.2 µM (inactive)	48.3 µM (inactive)	36.6 µM (inactive)		31.3 µM (inactive)	20.7 µM (inactive)	39.1 µM (inactive)	13.8 µM (inactive)
O=C(Nc1ccc(Cl)cc1)c1cc([N+](=O)[O-])ccc1O	2.67 µM (inactive)	3.65 µM (inactive)	3.55 µM (inactive)	4.33 µM (inactive)	4.69 µM (inactive)	4.84 µM (inactive)	4.68 µM (inactive)	2.64 µM (inactive)	4.95 µM (inactive)	6.79	3.27 µM (inactive)	2.32 µM (inactive)	2.64 µM (inactive)	2.67 µM (inactive)	4.07 µM (inactive)	4.97 µM (inactive)		3.29 µM (inactive)
CCCCc1c2c(nc3c1CC/C(=C\c1ccc([N+](=O)[O-])cc1)C3=O)CCCC2	1.76 µM (inactive)	1.85 µM (inactive)	2.28 µM (inactive)	1.88 µM (inactive)	2.15 µM (inactive)	2.3 µM (inactive)	1.7 µM (inactive)	1.46 µM (inactive)	2.1 µM (inactive)	0.312	1.59 µM (inactive)	1.78 µM (inactive)		2.17 µM (inactive)	1.88 µM (inactive)	1.98 µM (inactive)		1.6 µM (inactive)
O=S1(=O)[C@H](c2ccccc2)c2c(-c3ccccc3)sc(-c3ccccc3)c2[C@@H]1c1ccccc1	> 100 µM (inactive)	> 100 µM (inactive)		> 100 µM (inactive)	> 100 µM (inactive)	> 100 µM (inactive)	> 100 µM (inactive)	> 100 µM (inactive)	> 100 µM (inactive)	> 100	> 100 µM (inactive)	> 100 µM (inactive)	> 100 µM (inactive)	> 100 µM (inactive)	> 100 µM (inactive)	> 100 µM (inactive)	27 µM (inactive)	58.5 µM (inactive)
C/C(=C\CBr)CCC(Br)C(C)(C)Cl (configuration not stated)		> 100 µM (inactive)	> 100 µM (inactive)	> 100 µM (inactive)	> 100 µM (inactive)	> 100 µM (inactive)	> 100 µM (inactive)		> 100 µM (inactive)	> 100	> 100 µM (inactive)		> 100 µM (inactive)	> 100 µM (inactive)	> 100 µM (inactive)	> 100 µM (inactive)	> 100 µM (inactive)	> 100 µM (inactive)
CCCCn1c(-c2ccccc2)cs/c1=N\NC(=O)Cn1c(C)nc2ccccc21	40.6 µM (inactive)	53.2 µM (inactive)	35.8 µM (inactive)	> 100 µM (inactive)	> 100 µM (inactive)	34.5 µM (inactive)	70.8 µM (inactive)	17.9 µM (inactive)	33.5 µM (inactive)	97.9	96.2 µM (inactive)	89.1 µM (inactive)	8.75 µM (inactive)	14.5 µM (inactive)	19.8 µM (inactive)			32.6 µM (inactive)
COc1ccc(C(=O)C(CO)Oc2ccccc2OC)cc1OC (configuration not stated)	> 100 µM (inactive)	> 100 µM (inactive)		> 100 µM (inactive)	> 100 µM (inactive)	> 100 µM (inactive)	> 100 µM (inactive)	> 100 µM (inactive)	> 100 µM (inactive)	> 100	> 100 µM (inactive)	> 100 µM (inactive)	> 100 µM (inactive)	> 100 µM (inactive)	> 100 µM (inactive)	> 100 µM (inactive)		> 100 µM (inactive)
O=C1NC2(CCCCC2)C2CCCCC=C12 (configuration not stated)	> 100 µM (inactive)	> 100 µM (inactive)		> 100 µM (inactive)	> 100 µM (inactive)	> 100 µM (inactive)	> 100 µM (inactive)	> 100 µM (inactive)	> 100 µM (inactive)	> 100	> 100 µM (inactive)		> 100 µM (inactive)	> 100 µM (inactive)	> 100 µM (inactive)	> 100 µM (inactive)	> 100 µM (inactive)	> 100 µM (inactive)
CCOC(=O)C(=O)Nc1c(C)cccc1C(C)(C)C	> 100 µM (inactive)	> 100 µM (inactive)	> 100 µM (inactive)	> 100 µM (inactive)	> 100 µM (inactive)	> 100 µM (inactive)	> 100 µM (inactive)		> 100 µM (inactive)	> 100	> 100 µM (inactive)	> 100 µM (inactive)	> 100 µM (inactive)	> 100 µM (inactive)	> 100 µM (inactive)	> 100 µM (inactive)	> 100 µM (inactive)	> 100 µM (inactive)
COc1cc(OC(C)=O)cc2c(OC(C)=O)ccc(OC(C)=O)c12	> 100 µM (inactive)	> 100 µM (inactive)		> 100 µM (inactive)		> 100 µM (inactive)	> 100 µM (inactive)	74.8 µM (inactive)	> 100 µM (inactive)	> 100	> 100 µM (inactive)		> 100 µM (inactive)	> 100 µM (inactive)	> 100 µM (inactive)	> 100 µM (inactive)	17.1 µM (inactive)	> 100 µM (inactive)
O=C(NC1CCCCC1)c1c(O)[nH]c(=S)[nH]c1=O	> 100 µM (inactive)	> 100 µM (inactive)	> 100 µM (inactive)	89.7 µM (inactive)	> 100 µM (inactive)	> 100 µM (inactive)	> 100 µM (inactive)	> 100 µM (inactive)	99.3 µM (inactive)	> 100	88.5 µM (inactive)		> 100 µM (inactive)		> 100 µM (inactive)	> 100 µM (inactive)	96.8 µM (inactive)	> 100 µM (inactive)
